# What was measured:
# normal fibroblast = experiment: Bcl2 level on co-administration with VEGF; format: cell-based; conditions: co-administration of CoQ-10 and VEFG
# Excerpt: The term “Multidimensional Intracellular Molecule (MIM)”, is an isolated version or synthetically produced version of an endogenous molecule that is naturally produced by the body and/or is present in at least one cell of a human. A MIM is capable of entering a cell and the entry into the cell includes complete or partial entry into the cell as long as the biologically active portion of the molecule wholly enters the cell. MIMs are capable of inducing a signal transduction and/or gene expression mechanism within a cell. MIMs are multidimensional because the molecules have both a therapeutic and a carrier, e.g., drug delivery, effect. MIMs also are multidimensional because the molecules act one way in a disease state and a different way in a normal state.
# [1] = rats, oral; cited from earlier work
# MDA MB 468 = experiment: Induction of early apoptosis by CoQ10; format: cell-based
# Protocol: (§1) The effects of Coenzyme Q10 treatment on a variety of oncogenic and normal cell lines were examined and compared. The sensitivity of cells to Coenzyme Q10 was assessed by monitoring induction of apoptosis. CoQ10 treatment of cells was carried out as described in detail below in the Materials and Methods. Induction of apoptosis was assessed in the treated cells by monitoring indicators of early apoptosis (e.g., Bcl-2 expression, caspase activation and by using annexin V assays) as described below. From these studies, the minimal CoQ10 dosage, e.g., concentration of CoQ10 and time of treatment, required to induce apoptosis in the panel of cell lines was determined.
# (§2) Cells were cultured in T-75 flasks with relevant medium supplemented with 10% Fetal Bovine Serum (FBS), 1% PSA (penicillin, streptomycin, amphotericin B) (Invitrogen and Cellgro) in a 37° C. incubator with 5% CO2 levels until 70-80% confluence was reached. To harvest cells for treatment, flasks were primed with 1 mL Trypsin, aspirated, trypsinized with an additional 3 mL, and incubated at 37° C. for 3-5 minutes. Cells were then neutralized with an equal volume of media and the subsequent solution was centrifuged at […] for 8 minutes. The supernatant was aspirated and the cells were resuspended with 8.5 ml of media. A mixture of 500 ul of the resuspension and 9.5 ml of […] was read twice by a coulter counter and the appropriate number of cells to be seeded into each dish was determined. Control and concentration ranging from 0-200 μM groups were examined in triplicate. From a 500 μM CoQ-10 stock solution, serial dilutions were performed to achieve desired experimental concentration in appropriate dishes. Dishes were incubated in a 37° C. incubator with 5% CO2 levels for 0-72 hours depending on cell type and experimental protocol.
# (§3) The volume of sample to load per well was determined using the raw mean concentration of protein obtained from the BCA protein assay. Approximately 30-60 μg of protein were loaded for each treatment time point. Proteins were run in triplicate on 12% Tris-HCl ready gels (Bio-Rad) or hand cast gels in 1× running buffer at 85 and 100 volts. Proteins were then transferred onto nitrocellulose paper for an hour at 100 volts, and blocked for another hour in a 5% milk solution. Membranes were placed in primary antibody (1 uL Ab:1000 uL TBST) (Cell Signaling) overnight at […] The following day, membranes were washed three times for ten minutes each with Tris-Buffered Saline Tween-20 (TBST), and secondary antibody (anti-rabbit; 1 uL Ab: 1000 uL TBST) was applied for an hour at […] Membranes were washed again three times for ten minutes with TBST and chemoluminescence using Pico or Femto substrate was completed (Pierce). Membranes were then developed at time intervals that produced the best visual results. After developing, membranes were kept in TBST at […] until Actin levels could be measured.
# (§4) Cells were washed twice in PBS10× and resuspended in Binding Buffer (0.1 M HEPES, pH 7.4; 1.4 M NaCl; 25 mM CaCl2). Samples of 100 μl were added to a culture tube with 5 μl of annexin-PE dye or […]. The cells were mixed and incubated without light at room temperature for 15 minutes. After which, 400 μl of 1×Binding Buffer was added to each sample and they were subjected to analysis by flow cytometry.
# BT-20 = experiment: Induction of early apoptosis by CoQ10; format: cell-based
# Protocol: as §1, §2, §3, §4
# Osteosarcoma (143b) = experiment: Induction of early apoptosis by CoQ10; format: cell-based
# Protocol: as §1, §2, §3, §4
# Hep3B = experiment: Induction of early apoptosis by CoQ10; format: cell-based
# Protocol: as §1, §2, §3, §4
# [2] = test system: SCC, Squamous cell carcinoma; experiment: Induction of early apoptosis by CoQ10; format: cell-based
# Protocol: as §1, §2, §3, §4
# Fibroblasts (nFib) = experiment: Induction of early apoptosis by CoQ10; format: cell-based; conditions: SKIN: Fibroblasts (nFib)
# Protocol: as §1, §2, §3, §4
# HepG2 = experiment: Induction of early apoptosis by CoQ10; format: cell-based
# Protocol: as §1, §2, §3, §4
# [3] = test system: Keratinocytes (Heka, Hekn); experiment: Induction of early apoptosis by CoQ10; format: cell-based; conditions: SKIN: Keratinocytes (Heka, Hekn)
# Protocol: as §1, §2, §3, §4
# PC3 = experiment: Induction of early apoptosis by CoQ10; format: cell-based
# Protocol: as §1, §2, §3, §4
# Melanoma (Skmel 2) = experiment: Induction of early apoptosis by CoQ10; format: cell-based
# Protocol: as §1, §2, §3, §4
# PaCa2 = experiment: Induction of early apoptosis by CoQ10; format: cell-based
# Protocol: as §1, §2, §3, §4
# MCF-7 = experiment: Induction of early apoptosis by CoQ10; format: cell-based
# Protocol: as §1, §2, §3, §4
# Melanocytes (Hema, LP) = experiment: Induction of early apoptosis by CoQ10; format: cell-based; conditions: SKIN: Melanocytes (Hema, LP)
# Protocol: as §1, §2, §3, §4
# SkBr-3 = experiment: Induction of early apoptosis by CoQ10; format: cell-based
# Protocol: as §1, §2, §3, §4
# [4] = test system: Mammary fiboblasts: 184A1 and 184B5; experiment: Induction of early apoptosis by CoQ10; format: cell-based; conditions: BREAST: Mammary fiboblasts 184A1 and 184B5
# Protocol: as §1, §2, §3, §4
substance,measurement,setting,value
Coenzyme Q10 [CoQ10],Level of Bcl2,normal fibroblast,no effect on the levels of Bcl2
same,Fraction of orally-administered CoQ10 absorbed,[1],2-3%
same,"Indication of Early apoptosis (Bcl-2, annexin V, or caspase activation)",MDA MB 468; BREAST: MDA MB 468,Strong
same,Minimal CoQ10 Concentration required for induction of early apoptosis,MDA MB 468; MDA MB 468,100 µM
same,Treatment Time required for induction of early apoptosis,MDA MB 468; MDA MB 468,48 h
same,"Indication of Early apoptosis (Bcl-2, annexin V, or caspase activation)",BT-20; BREAST: BT-20,Strong
same,Minimal CoQ10 Concentration required for induction of early apoptosis,BT-20; BT-20,100 µM
same,Treatment Time required for induction of early apoptosis,BT-20; BT-20,48 h
same,"Indication of Early apoptosis (Bcl-2, annexin V, or caspase activation)",Osteosarcoma (143b); BONE: Osteosarcoma (143b),Very Strong
same,Minimal CoQ10 Concentration required for induction of early apoptosis,Osteosarcoma (143b); Osteosarcoma (143b),50 µM
same,Treatment Time required for induction of early apoptosis,Osteosarcoma (143b); Osteosarcoma (143b),48 h
same,Minimal CoQ10 Concentration required for induction of early apoptosis,Hep3B; Hep3B,50 µM
same,Treatment Time required for induction of early apoptosis,Hep3B; Hep3B,24 h
same,"Indication of Early apoptosis (Bcl-2, annexin V, or caspase activation)",Hep3B; LIVER: Hep3B,Very Strong
same,Minimal CoQ10 Concentration required for induction of early apoptosis,[2]; SCC,25 µM
same,Treatment Time required for induction of early apoptosis,[2]; SCC,24 h
same,"Indication of Early apoptosis (Bcl-2, annexin V, or caspase activation)",[2]; SKIN: SCC,Very Strong
same,"Indication of Early apoptosis (Bcl-2, annexin V, or caspase activation)",Fibroblasts (nFib),None
same,Minimal CoQ10 Concentration required for induction of early apoptosis,HepG2; HepG2,50 µM
same,Treatment Time required for induction of early apoptosis,HepG2; HepG2,24 h
same,"Indication of Early apoptosis (Bcl-2, annexin V, or caspase activation)",HepG2; LIVER: HepG2,Very Strong
same,"Indication of Early apoptosis (Bcl-2, annexin V, or caspase activation)",[3],None
same,Minimal CoQ10 Concentration required for induction of early apoptosis,PC3; PC3,25 µM
same,Treatment Time required for induction of early apoptosis,PC3; PC3,24 h
same,"Indication of Early apoptosis (Bcl-2, annexin V, or caspase activation)",PC3; PROSTATE: PC3,Very Strong
same,Minimal CoQ10 Concentration required for induction of early apoptosis,Melanoma (Skmel 2); Melanoma (Skmel 2),25 µM
same,Treatment Time required for induction of early apoptosis,Melanoma (Skmel 2); Melanoma (Skmel 2),24 h
same,"Indication of Early apoptosis (Bcl-2, annexin V, or caspase activation)",Melanoma (Skmel 2); SKIN: Melanoma (Skmel 2),Very Strong
same,"Indication of Early apoptosis (Bcl-2, annexin V, or caspase activation)",PaCa2; PANCREAS: PaCa2,Very Strong
same,Minimal CoQ10 Concentration required for induction of early apoptosis,PaCa2; PaCa2,25 µM
same,Treatment Time required for induction of early apoptosis,PaCa2; PaCa2,24 h
same,"Indication of Early apoptosis (Bcl-2, annexin V, or caspase activation)",MCF-7; BREAST: MCF-7,Strong
same,Minimal CoQ10 Concentration required for induction of early apoptosis,MCF-7; MCF-7,50 µM
same,Treatment Time required for induction of early apoptosis,MCF-7; MCF-7,48 h
same,"Indication of Early apoptosis (Bcl-2, annexin V, or caspase activation)","Melanocytes (Hema, LP)",None
same,"Indication of Early apoptosis (Bcl-2, annexin V, or caspase activation)",SkBr-3; BREAST: SkBr-3,Very Strong
same,Minimal CoQ10 Concentration required for induction of early apoptosis,SkBr-3; SkBr-3,50 µM
same,Treatment Time required for induction of early apoptosis,SkBr-3; SkBr-3,24 h
same,"Indication of Early apoptosis (Bcl-2, annexin V, or caspase activation)",[4],None

# From patent publication US20130266557A1, “METHODS FOR TREATMENT OF A SARCOMA USING AN EPIMETABOLIC SHIFTER (COENZYME Q10)” (priority 2009, published 2013)
